Patent US7297817B2, “Thio-substituted arylmethanesulfinyl derivatives” (Cephalon France, priority 2004, dated 2007)

Key:
Wistar rats = assay: Evaluation of Wake Promoting Activity in Rats (EEG/EMG sleep/wake scoring); type: in vivo, rat; conditions: i.p. route, 100 mg/kg; for Mean AUC0–3h, test compound: first 3 hrs following dosing, n = 8 rats; for wakefulness compared to vehicle-treated animals: p<0.05 vs control groups
Experimental: The methodology utilized for evaluating wake promoting activity of test compounds is based on that described by Edgar and Seidel, Journal of Pharmacology and Experimental Therapeutics, 283:757-769, 1997, and incorporated herein in its entirety by reference.
Animal Surgery. Adult, male Wistar rats (275-320 g from Charles River Laboratories, Wilmington, Mass.) were anesthetized (Nembutal, 45 mg/kg, ip.) and surgically prepared with implants for recording of chronic EEG (encephalographic) and EMG (electromyographic) recording. The EEG implants were made from commercially available components (Plastics One, Roanoke, Va.). EEG signals were recorded from stainless steel screw electrodes: 2 frontal (+3.0 mm AP from bregma, ±2.0 mm ML), and 2 occipital (−4.0 mm AP from bregma, ±2.0 mm ML). Two Teflon-coated stainless steel wires were positioned under the nuchal trapezoid muscles for EMG recording. All electrode leads were inserted into a connector pedestal and the pedestal affixed to the skull by application dental acrylic. Antibiotic was administered post surgically and antibiotic cream was applied to the wound edges to prevent infection. At least one week elapsed between surgery and recording.
Recording environment. Postsurgically, rats were housed in pairs in an isolated room. Food and water were available ad libitum, ambient temperature was 21° C., and humidity was 55%. At least 24 hrs prior to recording, they were placed in Nalgene containers (31×31×31 cm) with a wire-grid top, and entry to the room was prohibited during the day of recording except for dosing. The containers were placed on a rack with two shelves, 4 containers per shelf. Fluorescent overhead room lights were set to a 24 hr. light/dark cycle (on at 7 AM, off at 7 PM). Light levels inside the containers were 38 and 25 lux for the top and bottom shelves respectively. Background white-noise (68 db inside the containers) was present in the room to mask ambient sounds.
Data acquisition. EEG and EMG signals were led via cables to a commutator (Plastics One) and then to pre-amplifiers (model 1700, A-M Systems, Carlsborg, Wash.). EEG and EMG signals were amplified (10K and 1K respectively) and bandpass filtered between 0.3 and 500 Hz for EEG and between 10 and 500 Hz for EMG. […] On the day of dosing, data was recorded for 6 to 10 hours beginning at 11 AM.
Drug administration and study design. Compounds were evaluated on groups of from 4 to 8 rats carried out over one or two separate test sessions. […]
Sleep/wake scoring. Sleep and wake activity were determined manually using ICELUS software. […]

Row | melting point [°C] | Structure (SMILES) | Mean AUC0–3h, test compound (Wistar rats) | wakefulness compared to vehicle-treated animals (Wistar rats)
1 |  | NC(=O)C[S+]([O-])Cc1ccccc1NC(=O)c1ccc(Cl)cc1 (centres unmarked) [Example 113, N-(2-carbamoylmethanesulfinylmethyl-phenyl)-4-chloro-benzamide] | 99.0 % of waiking time × hr | significantly greated wakefulness
2 | 153 to 154 | NC(=O)C[S+]([O-])Cc1ccccc1COc1ccccc1 (centres unmarked) |  | 
3 |  | CC(=O)N1CCN(C(=O)C[S+]([O-])Cc2ccc(Oc3ccc(Cl)c(Cl)c3)cc2)CC1 (centres unmarked) [Example 22, 1-(4-Acetyl-piperazin-1-yl)-2-[4-(3,4-dichloro-phenoxy)-phenylmethanesulfinyl]-ethanone] | 162.7 % of waiking time × hr | significantly greated wakefulness
